This is an account of results in ChEMBL document CHEMBL1641551, “Glycosylated nordihydroguaiaretic acids as anti-cancer agents” (Bioorg Med Chem Lett, 2011).

Experiment [1] has as its system NCI/ADR-RES. Description: Cytotoxicity against human NCI/ADR-RES cells after 3 days by MTT assay. It counts as functional, cell-based. Background: Tetrazolium dyes change colour on reduction, which living cells bring about.
Experiment [2] relates to HT-29. Description: Cytotoxicity against human HT-29 cells after 3 days by MTT assay. The format is functional, cell-based.
In experiment [3] the test system is MCF7. Description: Cytotoxicity against human MCF7 cells after 3 days by MTT assay. The format is functional, cell-based.
Experiment [4] is described as follows: Cytotoxicity against human Hep3B cells after 3 days by MTT assay. It counts as functional, cell-based, Hep 3B2. The note with it: 72 h.
Experiment [5] deals with LNCaP. Description: Cytotoxicity against human LNCAP cells after 3 days by MTT assay. The format is functional, cell-based. Particulars: 72 h.

Activity calls are given as the source filed them. No cut-off for these calls is given here. A value given as a limit tells only on which side of the number the result lay.

As to `C[C@H](Cc1ccc(OCc2cn(CCCCCCO)nn2)c(OCc2cn(CCCCCCO)nn2)c1)[C@@H](C)Cc1ccc(OCc2cn(CCCCCCO)nn2)c(OCc2cn(CCCCCCO)nn2)c1`, the result in experiment [1], in experiment [2] and in experiment [3] was inactive.

By IC50 is commonly meant the midpoint of a concentration-inhibition curve. Low values mean higher potency, high ones lower potency. With `C[C@H](Cc1ccc(OCc2cn(CCCCCCO[C@@H]3O[C@H](CO)[C@@H](O)[C@H](O)[C@H]3O)nn2)c(OCc2cn(CCCCCCO[C@@H]3O[C@H](CO)[C@@H](O)[C@H](O)[C@H]3O)nn2)c1)[C@@H](C)Cc1ccc(OCc2cn(CCCCCCO[C@@H]3O[C@H](CO)[C@@H](O)[C@H](O)[C@H]3O)nn2)c(OCc2cn(CCCCCCO[C@@H]3O[C@H](CO)[C@@H](O)[C@H](O)[C@H]3O)nn2)c1`, the outcome in experiment [1], in experiment [2] and in experiment [3] was inactive. The IC50 in experiment [4] came to 83 µM.

Regarding `COc1ccc(C[C@@H](C)[C@@H](C)Cc2ccc(OC)c(OC)c2)cc1OC` [TERAMEPROCOL], the IC50 is no more than 10 µM in experiment [1] (72 h); no more than 10 µM in experiment [5]; no more than 10 µM in experiment [4]; no more than 10 µM in experiment [2] (HT-29, 72 h); no more than 10 µM in experiment [3] (MCF7, 72 h).

As for `C[C@H](Cc1ccc(OCc2cn(CCO)nn2)c(OCc2cn(CCO)nn2)c1)[C@@H](C)Cc1ccc(OCc2cn(CCO)nn2)c(OCc2cn(CCO)nn2)c1`, the outcome in experiment [1], in experiment [2] and in experiment [3] was inactive.

Turning to `C[C@H](Cc1ccc(OCc2cn(CCCCCCO[C@@H]3O[C@H](CO)[C@H](O)[C@H](O)[C@H]3O)nn2)c(OCc2cn(CCCCCCO[C@@H]3O[C@H](CO)[C@H](O)[C@H](O)[C@H]3O)nn2)c1)[C@@H](C)Cc1ccc(OCc2cn(CCCCCCO[C@@H]3O[C@H](CO)[C@H](O)[C@H](O)[C@H]3O)nn2)c(OCc2cn(CCCCCCO[C@@H]3O[C@H](CO)[C@H](O)[C@H](O)[C@H]3O)nn2)c1`, the result in experiment [1], in experiment [2] and in experiment [3] was inactive. This molecule returned an IC50 in experiment [4] of 88 µM.

With `C[C@H](Cc1ccc(OCc2cn(CCO[C@@H]3O[C@H](CO)[C@H](O)[C@H](O)[C@H]3O)nn2)c(OCc2cn(CCO[C@@H]3O[C@H](CO)[C@H](O)[C@H](O)[C@H]3O)nn2)c1)[C@@H](C)Cc1ccc(OCc2cn(CCO[C@@H]3O[C@H](CO)[C@H](O)[C@H](O)[C@H]3O)nn2)c(OCc2cn(CCO[C@@H]3O[C@H](CO)[C@H](O)[C@H](O)[C@H]3O)nn2)c1`, the outcome in experiment [1], in experiment [2] and in experiment [3] was inactive.
